Laboratory results taken from a melting point compilation (Tetko et al.).

Compound | melting point [°C]
CCOCCO | -70
C#CC1(O)CCC2C3CCC4=CCCCC4C3C(=C)CC21CC (configuration not stated) | 110
c1ccc(N=Nc2ccc(N=Nc3ccc(/N=N/c4ccc(N=Nc5ccccc5)cc4)cc3)cc2)cc1 | 275
COC(=O)C1=C(C(=O)OC)C2(COC(=O)C(C)NC(C)=O)c3ccccc3C1c1ccccc12 (configuration not stated) | 180
N#Cc1ccc(N2N=N2)cc1 | 70
CCCCCCCCCCCCCCCCCC(=O)OCCC | 28.9
C#CC1(O)CCC2C3CCC4=CC(=O)CCC4C3CCC21C (configuration not stated) | 204
NC(c1ccccc1)(c1ccccc1)c1ccccc1 | 102
C1OC1C1CO1 (configuration not stated) | 4
N=C(N)C(F)(F)C(F)(F)C(F)(F)F | 49 to 51
COc1cc(I)c(OC)cc1Cl | 115 to 116
Nc1nc(=O)[nH]cc1Br | 240 to 243
Fc1cccc(Cl)c1CCl | 7
C=CCC1(C(C)CC)C(=O)NC(=O)NC1=O (configuration not stated) | 109
CCCCC(C#N)(Cn1cncn1)c1ccc(Cl)cc1 (configuration not stated) | 70.9
CC(N)C(O)c1ccccc1 (configuration not stated) | 192
Nc1nnc(Br)s1 | 168 to 169
CCCCCCCCCCCCCCCCOCC(O)CO (configuration not stated) | 64
CC(C)=NN(c1ccccc1)P(=O)(N1CC1)N1CC1 | 120
NC(=O)N1CCCCC1 | 105
FC(F)(F)c1cc(C(F)(F)F)c(C(F)(F)F)cc1C(F)(F)F | 73 to 74
O=S(=O)(O)CCCN1CCN(CCO)CC1 | 231
O=P(OCCCl)(OCCCl)OCCCl | -35
C[Si]1(c2ccccc2)O[Si](C)(c2ccccc2)O[Si](C)(c2ccccc2)O1 (configuration not stated) | 100
C=CC(C)(CCC=C(C)C)OC(C)=O (configuration not stated) | < 25
N#Cc1ccc(F)c(F)c1 | 50
N#Cc1ccc(-c2cc[nH]n2)cc1 | 141

Compound | melting point [°C]
O=c1c(O)c(O)c(=O)c1=O | 331 to 334
CCC(C)C(N)CO (configuration not stated) | 36 to 39
C=C(C)C(=C)C | -76
C1CCNC1 | -57.8
c1ccc2cc(Nc3ccc(Nc4ccc5ccccc5c4)cc3)ccc2c1 | 235
OCC#Cc1cc(C(F)(F)F)cc(C(F)(F)F)c1 | 58 to 60
O=C1c2ccccc2C(=O)C1c1ccc2ccccc2n1 | 241
Nc1ccc(N=Nc2ccc(N=Nc3ccc(N)cc3)cc2)cc1 | 247
c1csc(P(c2cccs2)c2cccs2)c1 | 29 to 30
O=NN1CCc2ccccc21 | 83
CCCCCCCCC(C)=O | 14
CCCS(=O)(=O)O | 8
Oc1c(O)c(Br)c(Br)c(Br)c1Br | 191
CCCCCCCCCCCCCCCCCCCCCCCCCC(=O)OC | 63.8
OC(O)C(Cl)(Cl)Cl | 57
O=C(O)c1cc([N+](=O)[O-])c(Cl)c([N+](=O)[O-])c1Cl | 210 to 215
N#Cc1c(F)cccc1Oc1ccc(F)cc1 | 73 to 74
CC(C)(C)c1ccc2ccccc2c1 | -4
Cn1cc([N+](=O)[O-])c(=O)[nH]c1=O | 267 to 270
CCOC(=O)c1sc2sc(C#N)c(C)c2c1C | 155 to 157
ClCc1nc(-c2cccs2)no1 | 59 to 60
CCCCOC(=O)CC | -75
O=C(Cc1ccccc1)OCc1c([N+](=O)[O-])cccc1[N+](=O)[O-] | 90
CCC1CN2CCC1CC2C(O)c1ccnc2ccc(OCCC(C)C)cc12 (configuration not stated) | 152
CCC(C)c1cc([N+](=O)[O-])cc([N+](=O)[O-])c1O (configuration not stated) | 40
CN1CCN(C)C(C(=O)NN)C1 (configuration not stated) | 113
C#CC(C)(CC)OC(N)=O (configuration not stated) | 55.8

Continued, values first:

melting point [°C] | Compound
165 | CN(C)c1ccc(C(Cl)=NO)cc1
193 to 203 | Nc1ccc(SCC(=O)O)cc1
163 | CCCCCNc1cc(=O)oc2ccccc12
59 to 63 | Cc1cc(N)no1
162 to 163 | NC(=O)c1cccnc1Oc1ccccc1
128 | CCOc1cccc2c(=O)c(=O)c12
8 to 10 | Cc1cc(C)cc(C=O)c1
136 to 139 | O=C(c1ccc(F)cc1)[C@H]1CCCC[C@H]1C(=O)O (relative stereo)
190 | CC(=O)Oc1ccc(C2(c3ccc(OC(C)=O)cc3)Oc3ccccc3NC2=O)cc1
47 | Cc1ccnc(Cl)n1
85 to 87 | O=C(Cl)c1csc(-c2cccc(Cl)c2)n1
60 to 62 | O=[N+]([O-])c1cccc(-c2noc(CCl)n2)c1
148 to 149 | Cc1ccc(S(=O)(=O)NC(=S)Nc2ccccc2)cc1
99 to 102 | CN1C(c2cccnc2)N(C)[C@@H](c2ccccc2)[C@@H]1c1ccccc1
175 to 179 | COC(=O)c1cc2cc(S(C)(=O)=O)ccc2[nH]1
214 to 216 | O=C(O)c1cscc1S(=O)(=O)c1ccc(Cl)cc1
144 to 146 | NS(=O)(=O)c1ccc(F)c2nonc12
183 | CC(=O)N1CCN(c2ccc(O)cc2)CC1
295 to 300 | O=C(O)C=CC(=O)O
140 to 143 | Cc1cc(C(=O)NCc2ccc(Cl)cc2)no1
172 to 174 | Cc1cc(C)c(C(N)=O)c(N)n1
190 | O=C(O)CN(CC(=O)O)Cc1cc2c(c(O)c1O)C(=O)c1ccccc1C2=O
83 | O=C1CC(c2ccccc2)Cc2ccncc21 (configuration not stated)
163 | O=C(c1ccccc1)c1ccc(C(=O)c2ccccc2)cc1
77 to 78 | O=S(=O)(Cl)c1cccc2nonc12
158 to 160 | O=c1c(Cl)c(Cl)cnn1Cc1c(Cl)cccc1Cl

melting point [°C] | Compound
76 to 77 | Cn1nc(-c2cccs2)cc1C=O
198 | NC(=O)n1c(C2CCCCC2)nn(-c2ccccc2)c1=O
200 to 203 | O=C(O)CSc1ncccn1
174 | Oc1ccc(Nc2ccc(O)cc2)cc1
223 | Cc1cc(=O)oc2cc(OC3OCC(O)C(O)C3O)ccc12 (configuration not stated)
69.5 | COc1c(OC)c(OC(C)=O)c2c(OC)cccc2c1OC(C)=O
166 | O=C(Oc1ccc(O)cc1)c1ccccc1
86 | Cc1ccccc1-c1cc2ccccc2c(=O)o1
215 | NC(=O)NC(=O)Cc1ccccc1
105 to 107 | CSc1nc2ccc(N)cc2s1
169 | N#C/C(=N/Nc1ccc(Br)cc1)c1nc(-c2ccccc2)cs1
2 to 3 | OCCc1ccccc1C(F)(F)F
203 to 205 | Nc1nc(SCc2ccc([N+](=O)[O-])cc2)c2ncn(C3OC(CO)C(O)C3O)c2n1 (configuration not stated)
263 to 268 | Cc1nc(-c2ccc(C(=O)O)cc2)cs1
88 to 90 | O=C(O)CCC1CCCCCCCCCCC1=O (configuration not stated)
106 to 107 | O=S(=O)(Cl)c1ccc(-c2cc(C(F)(F)F)on2)s1
165 | CC(C)N1CSc2nnc(-c3cccc([N+](=O)[O-])c3)n2C1
200 | CC(C)(C(=O)O)C(C)(C)C(=O)O
114 to 115 | CCOC(=O)c1nc(-c2ccc(S(=O)(=O)Cl)s2)no1
97 | Nc1ncc(Cl)cc1I
41 to 46 | COc1ccc(F)cc1C=O
91 | O=S(=O)(O)c1ccc2ccccc2c1
205 to 206 | O=C(O)c1scc2c1OCCO2
301 to 302 | O=C1NC(=O)c2cccc3cccc1c23
194 to 196 | CSc1nc(N=Cc2ccc([N+](=O)[O-])cc2)nn1C
80 to 81 | Cn1nc(-c2ccc(C=O)s2)cc1C(F)(F)F

melting point [°C] | Compound
255 to 258 | N#Cc1cn(-c2ccccc2Cl)c(=O)[nH]c1=O
168 to 174 | CCOC(=O)C(=NOC(C)(C)C(=O)OC(C)(C)C)c1csc(N)n1
301 | O=C(O)/C=C/C=C/C(=O)O
110 to 112 | CCCCOc1ccc(NC(C)=O)cc1
233 | COc1ccc(Cc2cnc(N)nc2N)cc1OC
126 | O=C1c2ccccc2-c2ccc(Cl)cc21
148 to 150 | NC(=S)Nc1ccccn1
117 to 118 | Nc1cccc(S(=O)(=O)N2CCCCC2)c1
104 to 106 | C/C(=N\O)c1ccc2c(c1)CCCC2
251 to 255 | O=C(O)CSc1ccncc1
158 | O=C(O)COc1ccccc1[N+](=O)[O-]
217 | COC(=O)C1=C(C)NC(C)=C(C(=O)On2nnc3ccccc32)[C@H]1c1ccc([N+](=O)[O-])cc1
184 | O=C1C(=O)c2ccccc2C(Cl)=C1Cl
8.3 | O=[N+]([O-])c1cc(Cl)ccc1F
163 to 165 | COc1ccc(C(c2c(O)cc(C)oc2=O)c2c(O)cc(C)oc2=O)cc1
87 to 89 | Cn1ccnc1I
107 | Brc1cnc(N2CCCCC2)nc1OCc1ccccc1
56 to 58 | Cc1ccc(C)n1-c1cc([N+](=O)[O-])ccc1F
143 to 146 | O=C(O)c1ccc2c(c1)OCCCO2
205 to 207 | Cc1ccc(Sc2ncccc2C(N)=O)cc1
65 | CC(=O)Oc1ccccc1-c1ccccc1
240 | O=C1c2ccccc2C(O)(O)C1(O)C1(O)C(=O)c2ccccc2C1(O)O (configuration not stated)
65 to 67 | CSc1nc2ccccc2c(=O)n1C
78 | Nc1ccccc1COc1ccccc1
219 | CC(CCC(=O)O)C1CCC2C3C(O)CC4CC5(CCC4(C)C3CC(=O)C12C)OCCO5 (configuration not stated)
174 | O=C(O)c1ccc([N+](=O)[O-])cc1F
